These results are taken from PMC7146574, “Efficacy of a Novel ACE-Inhibitory Peptide from Sargassum maclurei in Hypertension and Reduction of Intracellular Endothelin-1” (Nutrients, 2020).

Residues, ends and D or L forms follow the SMILES beside them.

The term IC50 denotes the concentration at which inhibition is half-maximal.

In one series the test system is ACE. More on the design: method as in 5 sources, ref 8, 38 = [8]; PMID 30893907; doi:10.3390/md17030179; 8. Sun S. Xu X. Sun X. Zhang X. Chen X. Xu N. Preparation and Identification of ACE Inhibitory Peptides from the Marine Macroalga Ulva intestinalis Mar. Drugs 2019 17 179 10.3390/md17030179 PMC6471128 || [38]; doi:10.1016/j.jff.2015.10.025; 38. Forghani B. Zarei M. Ebrahimpour A. Philip R. Bakar J. Abdul-Hamid A. Saari N. Purification and characterization of angiotensin converting enzyme-inhibitory peptides derived from Stichopus horrens ||| ref 5, 9 = [5]; PMID 31108740; doi:10.1016/j.foodres.2019.03.035; 5. Zhao Y. Zhang L. Tao J. Chi C. Wang B. Eight antihypertensive peptides from the protein hydrolysate of Antarctic krill ( Euphausia superba ): Isolation, identification, and activity evaluation on h || [9]; PMID 30229250; doi:10.1039/C8FO00569A; 9. Ling Y. Sun L.P. Zhuang Y.L. Preparation and identification of novel inhibitory angiotensin-I-converting enzyme peptides from tilapia skin gelatin hydrolysates: Inhibition kinetics and molecular do ||| ref 38, 40 = [38]; doi:10.1016/j.jff.2015.10.025; 38. Forghani B. Zarei M. Ebrahimpour A. Philip R. Bakar J. Abdul-Hamid A. Saari N. Purification and characterization of angiotensin converting enzyme-inhibitory peptides derived from Stichopus horrens || [40]; PMID 29606478; doi:10.1016/j.foodchem.2018.02.107; 40. Tu M. Wang C. Chen C. Zhang R. Liu H. Lu W. Jing L. Du M. Identification of a novel ACE-inhibitory peptide from casein and evaluation of the inhibitory mechanisms Food Chem. 2018 256 98 104 10.101 ||| ref 41, 28 = [41]; doi:10.1016/j.lwt.2018.12.059; 41. Bhaskar B. Ananthanarayana L. Jamdar S. Purification, identification, and characterization of novel angiotensin I converting enzyme (ACE) inhibitory peptides from alcalase digested horse gram flou || [28]; doi:10.1016/j.jff.2017.03.008; 28. Lin K. Zhang L. Han X. Cheng D.Y. Novel angiotensin I-converting enzyme inhibitory peptides from protease hydrolysates of Qula casein: Quantitative structure-activity relationship modeling and mol ||| ref 25 = [25]; doi:10.1016/j.lwt.2016.08.047; 25. Wang X. Chen H. Fu X. Li S. Wei J. A novel antioxidant and ACE inhibitory peptide from rice bran protein: Biochemical characterization and molecular docking study LWT Food Sci. Technol. 2017 75 93. The following applies: cited from earlier work; for IC50: literature comparison.

Series [1] has as its system endothelin-1 (ET-1) in EA.hy926 cells. As to the kind of experiment: Effects on intracellular endothelin-1 (ET-1), ELISA of growth medium. The class given is cell-based, human. The following applies: captopril 1.0 mg/mL as comparison, 48 h. The method, then:
In a humidified atmosphere with 5% CO2, the EA.hy926 cells (a permanent hybridoma of the human umbilical vein endothelial cells and human lung carcinoma cell line A549) grown in 96-well plates were cultured in DMEM containing non-essential amino acids (10 mg/mL), streptomycin (0.1 mg/mL), and fetal bovine serum (0.1 g/mL) at 37 °C [5]. The cells (1.0 × 10^5 cells mL^−1) were treated with the synthesized peptides (0.5–1.5 mg/mL) for 24 h, and then the MTT assay was used to measure the cytotoxicity levels of the peptides. Moreover, EA.hy926 cells seeded in another 96-well plate (1.0 × 10^5 cells mL^−1) were cultured in DMEM at 37 °C for 24 h, and then treated with synthesized peptides (1–2 mg/mL) for 48 h. After that, the ET-1 content of the growth medium in each well was quantified by the ET-1 Elisa kit according to the instructions. Cells in the blank group were not treated with samples, while the cells in the positive group were treated with captopril (1 mg/mL). The inhibition ability on ET-1 was calculated as follows:(1) Inhibition abliliy (%)=(CB−Cs)/CB×100% where CB was the ET-1 content of the growth medium in the blank group and CS was the ET-1 content of the growth medium treated with the samples.
(In general: ELISA stands for enzyme-linked immunosorbent assay.)

For series [2], the system named is spontaneously hypertensive rats (SHRs). As to the kind of experiment: Antihypertensive effect in vivo, tail-cuff method. On the set-up: species or system rat. Conditions: oral 50, 100 and 150 mg/kg body weight every day (Figure S3). The procedure:
Twenty male spontaneously hypertensive rats (SHRs; 11 weeks, 240 ± 20 g body weight) from Vital River Laboratory Animal Technology Co., Ltd. (Beijing, China) were randomly divided into five groups of four rats each: negative control, positive control, and high-, middle- and low- dosage groups. Normal diet and tap water were freely available. Rats in the high-, middle-, and low-dose groups were orally given the synthetic peptide (RWDISQPY) via gastric intubation at 150, 100, and 50 mg/kg/body weight once daily, respectively. Meanwhile, rats in the positive control were orally given captopril (14 mg/kg/body weight once daily), and rats in the negative control were just administrated saline (0.9%). The diastolic blood pressure (DBP) and systolic blood pressure (SBP) of the rats were measured by the tail-cuff method once a week. The heart rate was recorded simultaneously. The animal experiment was conducted in conformity with institutional guidelines for the care and use of laboratory animals in Shanxi Normal University (No. 20181003, 16 September 2018), Linfen, China. All of the rats received human care conforming to the National Institutes of Health Guide for Care and Use of Laboratory Animals (National Institute of Health Publication No. 85–23, revised).

As for PFPGPIPN, the ACE inhibition pattern entry in the series on ACE was “competitive”. For QLLLQQ, the ACE inhibition pattern entry in the series on ACE is “competitive”. Consider NMAINPSKENLCSTFCK, for which, in the series with ACE, the half-inhibitory concentration (IC50) was 129 µM. In the case of VSRHFASYAN, the IC50 in the series with ACE was 210 µM.

Take QAGLSPVR: the half-maximal inhibitory concentration (IC50) in the series with ACE is 63.9 µM. For the compound `C[C@H](CS)C(=O)N1CCC[C@H]1C(=O)O` [captopril], the “Effect on ET-1 secretion” value in series [1] was “reduce ET-1 secretion”. Turning to TVGMTAKF, the ACE inhibition pattern entry in the series on ACE is “competitive”. In the case of `CC[C@H](C)[C@H](NC(=O)[C@H](CC(=O)O)NC(=O)[C@H](Cc1c[nH]c2ccccc12)NC(=O)[C@@H](N)CCCNC(=N)N)C(=O)N[C@@H](CO)C(=O)N[C@@H](CCC(N)=O)C(=O)N1CCC[C@H]1C(=O)N[C@@H](Cc1ccc(O)cc1)C(N)=O` [RWDISQPY] (H-RWDISQPY-NH2), in series [2], the “Effect on heart rate” value is on record as “no side effect” and the “Effect on normal increase in body weight” value is listed as “no side effect”. With FGMPLDR, the IC50 with ACE was 219 µM. Consider “GSAGY [literature peptide identified from horrens protein]”, for which the 50% inhibitory concentration (IC50) in the series on ACE is 706 µM.
